Measurements as given in the NIST ThermoML archive (doi:10.1021/je0340809).

Test: xn = mol fraction of the nth substance listed
Conditions: 101.3 kPa, Liquid

CN1CCCC1=O [N-methylpyrrolidone] + O
Conditions	mass density, 298.15 K [kg/m3]	mass density, 308.15 K [kg/m3]	mass density, 318.15 K [kg/m3]	speed of sound, 298.15 K [m/s]	speed of sound, 308.15 K [m/s]	speed of sound, 318.15 K [m/s]	viscosity, 298.15 K [mPa·s]	viscosity, 308.15 K [mPa·s]	viscosity, 318.15 K [mPa·s]
x2 = 0.0522	1029.55	1020.49	1011.19	1548.8	1521.3	1480.9	1.721	1.405	1.232
x2 = 0.1684	1032.9	1023.58	1014.09	1561	1533.3	1493	1.985	1.588	1.35
x2 = 0.2465	1035.15	1025.1	1016.08	1579.5	1549.9	1508.9	2.147	1.702	1.429
x2 = 0.3481	1038.13	1028.58	1018.81	1616.8	1578.3	1535.9	2.535	1.979	1.613
x2 = 0.4534	1041.65	1032.02	1022.08	1653.8	1610.1	1566.5	3.346	2.567	2.03
x2 = 0.5018	1043.41	1033.74	1023.72	1667.7	1624.8	1580.9	3.838	2.925	2.287
x2 = 0.5493	1045.11	1035.39	1025.31	1682	1639.5	1595.4	4.338	3.289	2.547
x2 = 0.6504	1047.71	1037.97	1027.9	1711.3	1672	1628.2	5.159	3.885	2.973
x2 = 0.752	1046.06	1036.73	1027.12	1738.2	1702.6	1661.2	5.071	3.814	2.905
x2 = 0.8536	1035.21	1027.32	1019.09	1748.1	1707.3	–	3.65	2.76	–
x2 = 0.8742	1031.43	1024.02	–	1738.4	1700.3	–	3.224	2.446	–
x2 = 0.8849	1029.24	1022.1	–	1730.9	1694.9	–	2.992	2.273	–
x2 = 0.8996	1025.97	1019.23	–	1716.8	1685.4	–	2.668	2.034	–
x2 = 0.9257	1019.43	1013.52	–	1681.1	1661.1	–	2.093	1.609	–
x2 = 0.9368	1016.38	1010.86	–	1661	1647.4	–	1.857	1.435	–
x2 = 0.9557	1010.88	1006.06	–	1621.2	1618.8	–	1.487	1.16	–
x2 = 0.9641	1008.33	1003.83	–	1600.8	1603.6	–	1.338	1.051	–
x2 = 0.9754	1004.82	1000.77	–	1571.3	1580.6	–	1.16	0.92	–
x2 = 0.99	1000.21	996.769	–	1529.1	1546.1	–	0.978	0.785	–
